Data set [1] concerns Human immunodeficiency virus 1. Kind of data set: Antiviral activity against wild-type HIV1 3B infected in human MT4 cells assessed as protection of cells from virus-induced cytopathic after 5 days by MTT assay. The class given is functional, organism-based. Conditions: Human immunodeficiency virus 1, 3B, MT4, 120 h.
The subject of data set [2] is Human immunodeficiency virus 1. In words: Antiviral activity against HIV1 harboring K103N/Y181C double mutant infected in human MT4 cells assessed as protection of cells from virus-induced cytopathic after 5 days by MTT assay. The class given is functional, organism-based. Conditions: Human immunodeficiency virus 1, MT4, 120 h. Background: Damage to the host cells serves as the signal in cytopathic effect assays.

Data set [3] can be described thus: Cytotoxicity against mock-infected human MT4 cells after 5 days by MTT assay. In kind it is cell-based. A general note: Formazan colour is commonly taken as a measure of viable cells.
A short description of data set [4]: Selectivity index, ratio of CC50 for mock-infected human MT4 cells to EC50 for HIV1 3B infected in human MT4 cells. The class given is toxicity, cell-based. Conditions: mock-infected (CC50) and HIV1 3B infected (EC50).
Data set [5] deals with Human immunodeficiency virus type 1 reverse transcriptase (Human immunodeficiency virus 1, UniProt Q72547). In words: Inhibition of wild-type HIV1 Reverse transcriptase p66/p51 assessed as relative fluorescence signal after 40 mins.
For data set [6], the target named is Human immunodeficiency virus type 1 integrase (Human immunodeficiency virus 1, UniProt Q7ZJM1). Kind of data set: Inhibition of HIV1 integrase.
Data set [7] has as its target Human immunodeficiency virus type 1 reverse transcriptase (Human immunodeficiency virus 1) (UniProt Q72547). In words: Inhibition of wild-type HIV1 Reverse transcriptase p66/p51 assessed as fluorescence signal by time-of-addition assay.

Activity calls are given as the source filed them. The calls are words filed in the database; no cut-off is given here.

The source of these data is ChEMBL document CHEMBL3585306, “Anti-HIV diarylpyrimidine-quinolone hybrids and their mode of action” (Bioorg Med Chem, 2015).

Chain of Human immunodeficiency virus type 1 integrase (Q7ZJM1 whole entry): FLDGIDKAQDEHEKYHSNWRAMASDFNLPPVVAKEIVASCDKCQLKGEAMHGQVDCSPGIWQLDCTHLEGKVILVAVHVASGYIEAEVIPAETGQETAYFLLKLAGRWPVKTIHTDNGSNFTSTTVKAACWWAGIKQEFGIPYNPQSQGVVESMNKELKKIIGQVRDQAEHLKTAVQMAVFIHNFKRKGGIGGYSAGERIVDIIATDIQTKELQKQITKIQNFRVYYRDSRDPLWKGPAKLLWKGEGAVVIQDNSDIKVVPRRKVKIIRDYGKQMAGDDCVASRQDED

By EC50 is commonly meant the midpoint of the concentration-response curve. A word on the CC50: it is the concentration giving 50% cytotoxicity. Read a high CC50 as better tolerance by the cells. As to `N#Cc1ccc(Nc2nccc(Oc3ccc4c(=O)c(C(=O)O)cn(C5CC5)c4c3)n2)cc1`, the EC50 in data set [1] and in data set [2] was greater than 221 µM in each case. Also, the CC50 at 120 h in data set [3] was no less than 221 µM. Moreover, the selectivity ratio in data set [4] is no more than 1.
As to `N#Cc1ccc(Nc2nccc(Nc3ccc4c(=O)c(C(=O)O)cn(C5CCCCC5)c4c3)n2)cc1`, the half-maximal effective concentration (EC50) in data set [1] and in data set [2] was greater than 2.18 µM throughout. Besides, the CC50 at 120 h in data set [3] was found to be 2.18 µM. Moreover, in data set [4], the selectivity ratio is less than 1.
One may read the IC50 as the midpoint of a concentration-inhibition curve. `N#Cc1ccc(Nc2nccc(Oc3ccc4c(=O)c(C(=O)O)cn(C5CCCC5)c4c3)n2)cc1`: the EC50 in data set [1] was 0.98 µM; in data set [2] it was greater than 4.96 µM. The IC50 in data set [5] was determined as 6.08 µM. Further, in data set [3], the CC50 at 120 h worked out at 4.96 µM. In addition, the selectivity ratio in data set [4] is 5.
For the compound `CCC(C)n1cc(C(=O)O)c(=O)c2ccc(Oc3ccnc(Nc4ccc(C#N)cc4)n3)cc21` (stereo unspecified), the EC50 in data set [1] and in data set [2] was greater than 274 µM each time. Also, the CC50 at 120 h in data set [3] is greater than 274 µM. Further, the selectivity ratio in data set [4] worked out at 1.
As for `CCn1cc(C(=O)O)c(=O)c2ccc(Nc3ccnc(Nc4ccc(C#N)cc4)n3)cc21`, the 50% effective concentration (EC50) in data set [1] and in data set [2] was greater than 123 µM throughout. The IC50 in data set [5] was determined as 7.07 µM. This compound gave a CC50 at 120 h in data set [3] of 123 µM. For the same compound, the selectivity ratio in data set [4] is less than 1.
Take `CCCn1cc(C(=O)O)c(=O)c2ccc(Oc3ccnc(Nc4ccc(C#N)cc4)n3)cc21`: the EC50 is no less than 0.43 µM in data set [1] and greater than 245 µM in data set [2]. For the same compound, in data set [5], the IC50 amounted to 9.12 µM. Also, it took 245 µM to reach half-maximal cytotoxicity in data set [3] (CC50 at 120 h). Further, in data set [4], the selectivity ratio was no more than 569.
On to `O=C1Nc2ccc(Cl)cc2[C@@](C#CC2CC2)(C(F)(F)F)O1` [EFAVIRENZ], for which the EC50 in data set [2] came to 0.14 µM. For the same compound, the CC50 at 120 h in data set [3] was greater than 6.5 µM.
As to `Cc1ccnc2c1NC(=O)c1cccnc1N2C1CC1` [NEVIRAPINE], the results for the EC50 in data set [1] and in data set [2] were 0.244 µM and no less than 11 µM, respectively. For the same compound, the CC50 at 120 h in data set [3] was greater than 15 µM.
In the case of `CCCCn1cc(C(=O)O)c(=O)c2ccc(Oc3ccnc(Nc4ccc(C#N)cc4)n3)cc21`, the EC50 is 0.33 µM in data set [1] and greater than 199 µM in data set [2]. Moreover, the IC50 came to 3.49 µM in data set [5] and 32.5 µM in data set [6]. This compound gave a CC50 at 120 h in data set [3] of no less than 199 µM. Also, the selectivity ratio in data set [4] is no less than 604. The inhibition result in data set [7] is “Active”.
In the case of `Cc1cn([C@H]2C[C@H](N=[N+]=[N-])[C@@H](CO)O2)c(=O)[nH]c1=O` [ZIDOVUDINE], the EC50 is 0.0056 µM in data set [1] and 0.0052 µM in data set [2]. The CC50 at 120 h in data set [3] is greater than 94 µM. The selectivity ratio in data set [4] stood at 16800.
As to `CCn1cc(C(=O)O)c(=O)c2ccc(Oc3ccnc(Nc4ccc(C#N)cc4)n3)cc21`, the EC50 in data set [1] was 0.28 µM; in data set [2], greater than 246 µM. In addition, in data set [5], the IC50 worked out at 7.15 µM. This compound also gave a CC50 at 120 h in data set [3] of 246 µM. Further, in data set [4], the selectivity ratio was found to be 880. Moreover, in data set [7], the inhibition entry is “Active”.
`CCCn1cc(C(=O)O)c(=O)c2ccc(Nc3ccnc(Nc4ccc(C#N)cc4)n3)cc21`: the EC50 in data set [1] and in data set [2] was greater than 189 µM in each case. Further, the CC50 at 120 h in data set [3] was determined as 189 µM. Besides, the selectivity ratio in data set [4] was less than 1.
On to `CCCCn1cc(C(=O)O)c(=O)c2ccc(Nc3ccnc(Nc4ccc(C#N)cc4)n3)cc21`, for which the EC50 in data set [1] and in data set [2] was greater than 13.6 µM in each case. The compound further registered a CC50 at 120 h in data set [3] of 13.6 µM. For the same compound, in data set [4], the selectivity ratio is less than 1.
On to `Cc1cc(C#N)cc(C)c1Oc1nc(Nc2ccc(C#N)cc2)nc(N)c1Br` [ETRAVIRINE], for which the values for the EC50 in data set [1] and in data set [2] were 0.0019 µM and 0.014 µM, respectively. Also, the half-maximal cytotoxic concentration (CC50) at 120 h in data set [3] amounted to 14.2 µM.
As to `CC(C)n1cc(C(=O)O)c(=O)c2ccc(Oc3ccnc(Nc4ccc(C#N)cc4)n3)cc21`, the EC50 in data set [1] and in data set [2] was greater than 283 µM each time. This compound also came in with a CC50 at 120 h in data set [3] greater than 283 µM. Further, the selectivity ratio in data set [4] stood at 1.
For the compound `CC(C)Cn1cc(C(=O)O)c(=O)c2ccc(Oc3ccnc(Nc4ccc(C#N)cc4)n3)cc21`, the EC50 in data set [1] is 1.16 µM; in data set [2] it was greater than 274 µM. Moreover, the IC50 in data set [5] was found to be 14 µM. The compound further returned a CC50 at 120 h in data set [3] greater than 274 µM. For the same compound, the selectivity ratio in data set [4] was greater than 237. Also, in data set [7], the inhibition entry was “Active”.
Consider `CC(C)n1cc(C(=O)O)c(=O)c2ccc(Nc3ccnc(Nc4ccc(C#N)cc4)n3)cc21`, for which the EC50 in data set [1] and in data set [2] was greater than 10.9 µM throughout. The compound also had a CC50 at 120 h in data set [3] of 10.9 µM. Besides, the selectivity ratio in data set [4] is less than 1.
As for `COc1cc2c(cc1Cc1cccc(Cl)c1F)c(=O)c(C(=O)O)cn2[C@H](CO)C(C)C`, the values for the EC50 in data set [1] and in data set [2] were 0.0031 µM and 0.0022 µM, respectively. In data set [3], half-maximal cytotoxicity (CC50 at 120 h) was put at 4.6 µM.
`N#Cc1ccc(Nc2nccc(Oc3ccc4c(=O)c(C(=O)O)cn(C5CCCCC5)c4c3)n2)cc1`: the EC50 in data set [1] and in data set [2] was greater than 3.22 µM each time. In data set [3], this compound showed a CC50 at 120 h of 3.22 µM. Further, the selectivity ratio in data set [4] was less than 1.
